Experimental data as given in paper PMC9598926, “Design and Synthesis of (Z)-5-(Substituted benzylidene)-3-cyclohexyl-2-thioxothiazolidin-4-one Analogues as Anti-Tyrosinase and Antioxidant Compounds: In Vitro and In Silico Insights” (Antioxidants, 2022).

How the values were obtained:
[1] = Peroxynitrite (ONOO−) scavenging activity assay (DHR 123, SIN-1); settings: SIN–1 10 µM; 5, 10, 20 µM
Protocol: 2.14. Peroxynitrite (ONOO^−) Scavenging Activity Assay
Peroxynitrite-scavenging activities were determined as described by Kooy et al. with modification. This method monitors the fluorescence of rhodamine 123, which is formed rapidly when non-fluorescent DHR 123 (dihydrorhodamine 123) (Molecular Probes, Eugene, OR, USA) in the presence of peroxynitrite. The rhodamine buffer solution (pH 7.4) included of 50 mM sodium phosphate, 90 mM sodium chloride, 5 mM potassium chloride, and 100 µM DTPA. The final concentration of DHR 123 was 5 µM. In this assay, the buffer solution was prepared prior to use and then stood on ice. Test compounds (10 µL, final concentrations: 5, 10, and 20 µM) dissolved in DMSO and added to 10 µL SIN-1 (10 µM) and 180 µL rhodamine buffer solution in the wells of a black 96-well plate. Fluorescence intensities of oxidized DHR 123 were measured using a fluorescence plate reader (Berthold Advances GmbH & Co., Bad Wildbad, Germany) with an excitation and emission wavelengths of 485 and 535 nm, respectively. Peroxynitrite scavenging activity was calculated after subtracting background fluorescence from final fluorescence intensity. Results are expressed as means ± standard deviation (SD), and L-penicillamine was used as a positive control.
Several RNS (reactive nitrogen species), including peroxynitrite (ONOO^–) and nitric oxide, are known to be involved in the induction of the melanogenesis. Therefore, we investigated the effects of analogs 1–8 on peroxynitrite scavenging activity using DHR123 (dihydrorhodamine) as a ROS indicator and SIN–1 as an RNS generator. Peroxynitrite generated by SIN–1 oxidizes DHR123 to rhodamine 123, a fluorescent compound. Thus, the effects of analogs on peroxynitrite scavenging ability were determined by measuring rhodamine 123 fluorescence.

[2] = target: mushroom tyrosinase; assay: Mushroom tyrosinase activity assay (L-tyrosine as substrate); type: biochemical; settings: mushroom tyrosinase, means ± SEMs of triplicate determinations
Protocol: 2.2. […] In brief, 20 µL of an aqueous mushroom tyrosinase solution (1000 units/mL) and 170 µL of a substrate mixture containing 345 µM of L-tyrosine and 17.2 mM of sodium phosphate buffer (pH 6.5) were added to wells of a 96-well microplate. […] Amounts of dopachrome produced were assessed by measuring optical densities at 475 nm using a microplate reader (VersaMax®, Molecular Devices, Sunnyvale, CA, USA). […] Experiments were independently conducted three times.

[3] = ABTS cation radical scavenging activity assay; settings: test sample 100 µM, 2 min in the dark
Protocol: 2.12. ABTS Cation Radical Scavenging Activity Assay
The free radical scavenging activities of analogs 1–8 and Trolox were determined using an ABTS radical cation decolorization assay (SEJIN CI Co., Seoul, Korea), as previously described with minor modification. Trolox was used as the positive control. ABTS radicals were produced by adding 10 mL of 7 mM ABTS in distilled water to 10 mL of 2.45 mM aqueous potassium persulfate solution. The mixture was kept in the dark for 12–16 h at RT until the reaction was complete and absorbance had stabilized. The prepared free radical solution was then diluted with methyl alcohol so that the optical density at 734 nm was 0.70 ± 0.02. Test samples (10 µL, final concentration at 100 µM) dissolved in EtOH/DMSO (9:1 v/v) were added to the diluted free radical solution (90 µL) in a 96-well plate. After standing at RT for 2 min in the dark, well absorbances were measured at 734 nm, and ABTS radical scavenging activities were calculated using the following formula:ABTS free radical scavenging activity (%) = (Ac − As) × 100/Ac(2) where Ac indicates the absorbance of the non-treated control, and As indicates the absorbances of test samples. Experiments were conducted independently 3 times.
The ABTS (2,2′-azino-bis(3-ethylbenzothiazoline-6-sulfonic acid)) cation radical scavenging assay is also commonly used to evaluate antioxidant effects. ABTS is converted to the ABTS radical cation by the transfer of one electron to potassium persulfate. Trolox was used as the positive control, and assays were performed at a test sample (analogs 1–8 and Trolox) concentration of 100 µM. The ABTS radical solution obtained by a reaction of ABTS with potassium persulfate was mixed with test samples and left in the dark for 2 min. ABTS radical scavenging abilities were evaluated by measuring absorbances at 734 nm. […] On the other hand, analog 1 with a 4-hydroxyphenyl group, and analogs 7 and 8 with bromo substituents on the β-phenyl ring weakly scavenged the ABTS radical (16.6–24.8% scavenging). […] Furthermore, the results for ABTS and DPPH radical scavenging activities were similar.

[4] = ROS scavenging activity assay (DCFH-DA/esterase, SIN-1); settings: SIN–1 10 µM; 5, 10, 20 µM
Protocol: 2.13. ROS Scavenging Activity Assay
The ROS scavenging activities of analogs 1–8 and Troloxwere determined as previously described by Ali et al. and Lebel and Bondy. Briefly, 2.5 mM DCFH-DA (2’,7’-dichlorodihydrofluorescein diacetate) (Molecular Probes, Eugene, OR, USA) solution was mixed with esterase (1.5 units/mL) in 50 mM phosphate buffer (pH 7.4), held for 30 min at 37 °C, and keep on ice in the dark until required. Tested compounds (10 µL; final concentrations: 5, 10, and 20 µM) dissolved in DMSO and SIN-1 (3-morpholinosydnonimine) (10 µM) and 180 µL of phosphate buffer in the wells of a black 96-well plate for 30 min. The 50 µL of DCFH-DA-esterase mixture (20 µM) was added. Fluorescence intensities of oxidized DCFH (DCF or 2′,7′-dichlorofluorescein) were measured using a microplate reader (Berthold Advances GmbH & Co., Bad Wildbad, Germany) with excitation and emission wavelengths of 485 and 530 nm, respectively. Trolox was used as the reference control.
Since it has been reported that reactive oxygen species (ROS) are concerned in the regulation of melanogenesis, we examined the ROS scavenging activities of analogs 1–8 using DCFH-DA (2′,7′-dichlorodihydrofluorescein diacetate) and esterase. Trolox and SIN–1 (3-morpholinosydnonimine) were used as the positive control and a ROS generator, respectively. Hydrolysis of DCFA-DA by esterase generates DCFH (2′,7′-dichlorodihydrofluorescein), which reacts with ROS generated by SIN–1 to produce the fluorescent compound DCF (2′,7′-dichlorofluorescein). Thus, ROS scavenging activities of analogs were assessed by measuring DCF fluorescence. […] Test samples including Trolox were treated at three different concentrations (5, 10, or 20 µM).

[5] = DPPH radical scavenging activity assay; settings: test sample 500 µM, DPPH 0.18 mM, 30 min in the dark
Protocol: 2.11. DPPH Radical Scavenging Activity Assay
The DPPH radical scavenging activities of analogs 1–8 were investigated as previously described with minor modification. L-Ascorbic acid was used as a positive control. In brief, 20 µL of analogs (5 mM) in DMSO or 5 mM L-ascorbic acid in distilled water were mixed with 180 µL of 0.2 mM DPPH in methanol in a 96-well microplate. After the microplate had been stored in the dark for 30 min, optical densities (ODs) were measured at 517 nm using a microplate reader (VersaMax®, Molecular Devices, Sunnyvale, CA, USA). DPPH radical scavenging activities were determined using the following formula:DPPH radical scavenging activity (%) = 100 × (Ac − As)/Ac(1) where Ac indicates the optical density of the non-treated control and As indicates the optical density of test sample. Experiments were conducted independently 3 times.
There is a possibility that compounds with antioxidant properties inhibit the oxidations of tyrosinase substrates, such as L-tyrosine and L-dopa, without interacting with the tyrosinase. Melanin production requires many oxidative processes, including the conversion of L-tyrosine to dopaquinone via L-dopa. Therefore, compounds with antioxidant activity have the potential to inhibit melanogenesis. DPPH (2,2-diphenyl-1-picrylhydrazyl) contains a free radical, and DPPH assays are commonly used to assess antioxidant activity. In this experiment, L-ascorbic acid (an antioxidant) was used as a positive control. The assay was conducted at a test sample and L-ascorbic acid concentration of 500 µM and a DPPH concentration of 0.18 mM. After standing test sample/DPPH mixtures for 30 min in the dark, optical densities were measured to evaluate radical scavenging activities.

[6] = system: B16F10 cells; assay: Melanin content analysis in α–MSH plus IBMX stimulated B16F10 cells; type: cell-based, murine; settings: α–MSH/IBMX stimulated (3.5-fold), 20 µM, 72 h
Protocol: 2.10. Melanin Content Analysis Melanin content assays were performed to determine the effects of analog 3 on cellular melanin formation, as previously described with minor modification. […] Briefly, cultured B16F10 cells were seeded in 6-well culture plates at 1 × 10^4 cells/well and incubated for 12 h under culture conditions to allow them to adhere to well bottoms. […] Cells were then washed twice with PBS and detached from wells by incubation with Trypsin/EDTA. After centrifugation, detached cell pellets were dissolved in 1N–NaOH solution (100 µL), incubated for 1 h at 60 °C, and mixed to solubilize melanin released by cells. The ability of analog 3 to inhibit melanin production was determined by measuring well optical densities (ODs) at 405 nm using a microplate reader (VersaMax®, Molecular Devices, Sunnyvale, CA, USA). Melanin contents were calculated by dividing the ODs of samples by the control OD. Experiments were conducted independently 3 times. […] Thus, B16F10 cells were treated with analog 3 (0, 5, 10, or 20 µM) for 1 h and then stimulated with α–MSH (1 µM) plus IBMX (200 µM) for 72 h. Melanin contents were assessed by measuring optical densities at 405 nm.

Structure (SMILES) | IC50 [2] [µM] | ABTS radical scavenging activity [3] | further results
CC(C)(S)C(N)C(=O)O (stereo in doubt) [penicillamine, L-penicillamine, reference compound] |  |  | peroxynitrite scavenging [1]: significantly and concentration-dependently reduced
O=C1/C(=C/c2ccc(O)cc2)SC(=S)N1C1CCCCC1 [Analog 1, (Z)-3-Cyclohexyl-5-(4-hydroxybenzylidene)-2-thioxothiazolidin-4-one] | 65.4 ± 7.82 | 16.6–24.8% | ROS scavenging [4]: significantly and concentration-dependently scavenged ROS
COc1cc(/C=C2\SC(=S)N(C3CCCCC3)C2=O)ccc1O [Analog 4, (Z)-3-Cyclohexyl-5-(4-hydroxy-3-methoxybenzylidene)-2-thioxothiazolidin-4-one] | > 200 | 57.7% | DPPH radical scavenging activity [5]: 72%
COc1ccc(/C=C2\SC(=S)N(C3CCCCC3)C2=O)cc1O [Analog 5, (Z)-3-Cyclohexyl-5-(3-hydroxy-4-methoxybenzylidene)-2-thioxothiazolidin-4-one] | 55 ± 11.9 | 43.5% | 
COc1cc(/C=C2\SC(=S)N(C3CCCCC3)C2=O)cc(OC)c1O [Analog 6, (Z)-3-Cyclohexyl-5-(4-hydroxy-3,5-dimethoxybenzylidene)-2-thioxothiazolidin-4-one] | > 200 | 46.9% | peroxynitrite scavenging compared with penicillamine [1]: more potently than penicillamine
O=C1/C(=C/c2ccc(O)c(Br)c2)SC(=S)N1C1CCCCC1 [Analog 7, (Z)-5-(3-Bromo-4-hydroxybenzylidene)-3-cyclohexyl-2-thioxothiazolidin-4-one] | 66.2 ± 9.44 | 16.6–24.8% | 
O=C1/C(=C/c2cc(Br)c(O)c(Br)c2)SC(=S)N1C1CCCCC1 [Analog 8, (Z)-3-Cyclohexyl-5-(3,5-dibromo-4-hydroxybenzylidene)-2-thioxothiazolidin-4-one] | > 200 | 16.6–24.8% | 
Cc1c(C)c2c(c(C)c1O)CCC(C)(C(=O)O)O2 (stereo not shown) [Trolox, reference compound] |  | 79.8% | ROS scavenging [4]: significantly and concentration-dependently scavenged ROS
O=c1cc(CO)occ1O [kojic acid, reference compound] |  |  | melanin contents versus non-treated controls [6]: 3.0 fold
